Experimental data from US4929601A, “Tripeptides useful as immunostimulants as well as in the prevention of metastases” (Ellem Industria Farmaceutica, S.p.A., priority 1987, dated 1990).

Tests used:
[1] = tested on: PHA-stimulated human T lymphocytes; assay: RNA synthesis in PHA-stimulated human T lymphocytes in vitro (3H-uridine); type: cell-based; conditions: for RNA synthesis, 3H-uridine c.p.m. (mean): control 3835
Description: Human T lymphocytes, incubated in vitro for 24 hours in presence of 0.5% phytohemagglutinin (PHA) and different concentrations of the tripeptides under examination, have been analyzed for RNA synthesis (cell activation) by means of 3H-uridine labelling.

[2] = tested on: PHA-stimulated human T lymphocytes; assay: DNA synthesis in PHA-stimulated human T lymphocytes in vitro (3H-thymidine); type: cell-based; conditions: for DNA synthesis, 3H-thymidine c.p.m. (mean): control 22642
Description: Human T lymphocytes, incubated in vitro for 72 hours in presence of 0.5% PHA and different concentrations of the tripeptides under examination, have been analyzed for DNA synthesis (cell proliferation) by means of 3H-thymidine labelling.

## N=C(N)NCCC[C@H](N)C(=O)NCC(=O)N[C@H](CC(=O)O)C(=O)O [ARG--GLY--D--ASP, L-Arginyl-glycyl-D-Aspartic acid]
[1]; 24 hours, 0.5% PHA
  PHA-induced human T lymphocyte activation (RNA synthesis): able to increase
[1]; peptide 0.0001 mcg/ml
  RNA synthesis Δ %: -8%
[1]; peptide 0.0001 mcg/ml, 24 hours, 0.5% PHA
  RNA synthesis, 3H-uridine c.p.m. (mean): 3517 c.p.m.
[1]; peptide 0.001 mcg/ml
  RNA synthesis Δ %: +8%
[1]; peptide 0.001 mcg/ml, 24 hours, 0.5% PHA
  RNA synthesis, 3H-uridine c.p.m. (mean): 4129 c.p.m.
[1]; peptide 0.01 mcg/ml
  RNA synthesis Δ %: +12%
[1]; peptide 0.01 mcg/ml, 24 hours, 0.5% PHA
  RNA synthesis, 3H-uridine c.p.m. (mean): 4283 c.p.m.
[1]; peptide 0.1 mcg/ml
  RNA synthesis Δ %: +25%
[1]; peptide 0.1 mcg/ml, 24 hours, 0.5% PHA
  RNA synthesis, 3H-uridine c.p.m. (mean): 4777 c.p.m.
[1]; peptide 1 mcg/ml
  RNA synthesis Δ %: +22%
[1]; peptide 1 mcg/ml, 24 hours, 0.5% PHA
  RNA synthesis, 3H-uridine c.p.m. (mean): 4682 c.p.m.
[1]; peptide 10 mcg/ml
  RNA synthesis Δ %: +13%
[1]; peptide 10 mcg/ml, 24 hours, 0.5% PHA
  RNA synthesis, 3H-uridine c.p.m. (mean): 4346 c.p.m.
[2]; 72 hours, 0.5% PHA
  PHA-induced human T lymphocyte proliferation (DNA synthesis): able to increase
[2]; peptide 0.0001 mcg/ml
  DNA synthesis Δ %: -3%
[2]; peptide 0.0001 mcg/ml, 72 hours, 0.5% PHA
  DNA synthesis, 3H-thymidine c.p.m. (mean): 21898 c.p.m.
[2]; peptide 0.001 mcg/ml
  DNA synthesis Δ %: +2%
[2]; peptide 0.001 mcg/ml, 72 hours, 0.5% PHA
  DNA synthesis, 3H-thymidine c.p.m. (mean): 23029 c.p.m.
[2]; peptide 0.01 mcg/ml
  DNA synthesis Δ %: +8%
[2]; peptide 0.01 mcg/ml, 72 hours, 0.5% PHA
  DNA synthesis, 3H-thymidine c.p.m. (mean): 24551 c.p.m.
[2]; peptide 0.1 mcg/ml
  DNA synthesis Δ %: +15%
[2]; peptide 0.1 mcg/ml, 72 hours, 0.5% PHA
  DNA synthesis, 3H-thymidine c.p.m. (mean): 26090 c.p.m.
[2]; peptide 1 mcg/ml
  DNA synthesis Δ %: +16%
[2]; peptide 1 mcg/ml, 72 hours, 0.5% PHA
  DNA synthesis, 3H-thymidine c.p.m. (mean): 26170 c.p.m.
[2]; peptide 10 mcg/ml
  DNA synthesis Δ %: +9%
[2]; peptide 10 mcg/ml, 72 hours, 0.5% PHA
  DNA synthesis, 3H-thymidine c.p.m. (mean): 24570 c.p.m.
